Here are results for two molecules from patent US20230414826A1, “FIBRIN HYDROGELS” (Mayo Foundation for Medical Education and Research, priority 2020, published 2023).

In this data set the target is T1, fibrin gels (40 mg/mL fibrinogen, 33 U/mL thrombin) (Homo sapiens, UniProt P02671+P02675+P02679).
T1 construct: purchased Ethicon (Evicel)
T1 sequence (P02671 20-644 isoform P02671-2 limits assumed): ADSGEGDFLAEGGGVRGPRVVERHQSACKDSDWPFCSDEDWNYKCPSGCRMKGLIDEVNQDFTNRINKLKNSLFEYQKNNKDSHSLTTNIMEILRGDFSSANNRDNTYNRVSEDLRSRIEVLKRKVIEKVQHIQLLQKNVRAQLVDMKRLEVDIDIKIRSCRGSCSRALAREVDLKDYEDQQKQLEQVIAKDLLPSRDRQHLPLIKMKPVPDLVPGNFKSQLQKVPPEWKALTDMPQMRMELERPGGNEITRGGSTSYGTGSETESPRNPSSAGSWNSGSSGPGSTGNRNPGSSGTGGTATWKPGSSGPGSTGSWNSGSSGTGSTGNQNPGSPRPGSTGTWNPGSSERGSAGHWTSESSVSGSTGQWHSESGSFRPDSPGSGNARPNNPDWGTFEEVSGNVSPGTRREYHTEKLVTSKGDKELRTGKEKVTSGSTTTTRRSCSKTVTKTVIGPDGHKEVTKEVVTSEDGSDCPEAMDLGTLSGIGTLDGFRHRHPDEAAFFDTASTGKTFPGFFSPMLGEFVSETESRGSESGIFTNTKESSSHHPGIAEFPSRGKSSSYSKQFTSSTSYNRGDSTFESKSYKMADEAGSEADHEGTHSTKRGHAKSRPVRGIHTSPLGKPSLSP
T1 sequence (P02675 45-491 limits assumed): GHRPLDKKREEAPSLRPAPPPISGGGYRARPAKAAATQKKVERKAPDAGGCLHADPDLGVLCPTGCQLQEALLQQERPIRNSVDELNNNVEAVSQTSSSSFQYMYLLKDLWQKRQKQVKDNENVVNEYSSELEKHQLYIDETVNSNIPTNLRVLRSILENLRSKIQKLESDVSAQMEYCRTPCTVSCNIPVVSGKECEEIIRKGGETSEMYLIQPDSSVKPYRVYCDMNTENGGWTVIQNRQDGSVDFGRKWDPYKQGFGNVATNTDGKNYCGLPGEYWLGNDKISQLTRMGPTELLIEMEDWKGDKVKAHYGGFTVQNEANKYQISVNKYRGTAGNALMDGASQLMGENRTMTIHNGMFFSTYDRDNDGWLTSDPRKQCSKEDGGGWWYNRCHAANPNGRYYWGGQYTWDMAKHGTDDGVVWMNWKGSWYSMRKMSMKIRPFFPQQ
T1 sequence (P02679 27-437 isoform P02679-2 limits assumed): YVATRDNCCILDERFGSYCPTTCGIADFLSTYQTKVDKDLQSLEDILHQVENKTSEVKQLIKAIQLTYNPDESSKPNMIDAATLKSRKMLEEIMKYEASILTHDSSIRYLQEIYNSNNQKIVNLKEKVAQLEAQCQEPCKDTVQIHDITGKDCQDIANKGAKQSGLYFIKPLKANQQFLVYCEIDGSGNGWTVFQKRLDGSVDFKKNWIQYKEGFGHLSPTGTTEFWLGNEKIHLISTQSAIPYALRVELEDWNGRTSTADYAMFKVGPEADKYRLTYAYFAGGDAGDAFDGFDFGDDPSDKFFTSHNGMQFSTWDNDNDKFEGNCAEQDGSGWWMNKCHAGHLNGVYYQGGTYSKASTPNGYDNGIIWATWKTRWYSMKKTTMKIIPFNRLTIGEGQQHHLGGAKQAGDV
As to the kind of experiment: Rheometry gelation time, polymerization time and shear modulus, higher fibrinogen concentration fibrin gels. To be noted: 0.12% w/v dye, n=3; for final shear modulus (g′): strain sweep after 2 hour time sweep. In kind it is biochemical. The procedure: The viscoelastic mechanical properties of fibrin gels were characterized using oscillatory shear rheology on a Discovery Hybrid Rheometer 2 (TA Instruments; New Castle, DE) with a 20 mm cone-and-plate geometry at a 1° angle and a 20 mm stage. Inertia, friction, and rotational mapping calibrations were performed prior to each experiment. A Peltier temperature-controlled stage maintained 37° C. and a solvent trap was used to control evaporation during experiments lasting longer than 20 minutes. Gels were prepared by mixing specified concentrations of fibrinogen, dye, and thrombin on the stage. Immediately after combining, the geometry head was lowered to 500 μm (˜1-3 seconds) before beginning the first experiment. Gelation kinetics were monitored in time sweeps at 1% strain and 10 rad/s angular frequency. Strain sweeps were measured from 0.01-1000% strain at 1 Hz frequency. A frequency sweeps measured from 0.01-3 Hz at 1% strain was used to confirmed fibrin independence of frequency.
To determine the final polymerization time and resultant shear modulus, a final concentration of 40 mg/mL fibrinogen, 33 U/mL thrombin, and 0.12% w/v dye was used to simulate fibrin scaffold parameters described elsewhere (see, e.g., Gandhi et al., 2018 Acta Biomater., 67:134-46). A time sweep was performed for 2 hours, and the strain sweep was measured following the time sweep to confirm final polymerization had occurred. The shear modulus was determined by averaging values within the linear region of the strain sweep (between 0.01% and 0.5% strain). A 95% confidence interval was defined for the final shear modulus and the lower range value was used as the threshold to determine the final polymerization time.
With confirming that both TB and EB, but not PEG, cause a substantial increase in gelation time, polymerization time was measured. The polymerization time is the total time for the hydrogel to fully form with no remaining soluble fibrin monomer. Functionally, this is defined as the point at which the shear modulus no longer changes. Quantitatively, this is defined at the point at which the g′ reaches its maximum and plateaus over time.
To test if the inclusion of TB and EB would alter the polymerization time, the previous rheometry setup was used over a longer range of time. Unfortunately, evaporative effects were detected as early as 2 hours. […] The surface was sticky, and the presence of non-cross-linked fibrin was evident. To measure polymerization time reliably, the fibrinogen and thrombin concentrations were increased. A 40 mg/mL fibrinogen and 33 U/mL thrombin final concentration is capable of fully polymerizing within 2 hours (see, e.g., Gandhi et al., Acta Biomater., 67:134-46 (2018)). As such, the rheometry experiment were repeated at these concentrations. A final concentration of 0.12% w/v for TB, EB and PEG was used.
Both PBS and PEG groups show g′ values greater than g″ values at the first detectable time point (12 seconds), showing that both groups had already past the initial gelation time. TB and EB show a delay in gelation but appear to quickly approach the PBS and PEG groups. Near the 1000 sec mark, all four groups appear to show a similar growth of g′ overtime. A strain sweep was measured at the end of the time sweep to confirm that the gel had completed polymerization within the 2 hour time frame. Shear modulus values from the linear portion of the strain sweep were verified with rheological data described elsewhere (see, e.g., Wedgwood et al., Macromolecular Symposia, 334:117-25 (2013); and Moreno-Arotzena et al., Materials (Basel), 8:1636-51 (2015)), and used to determine the final gel shear modulus. Using this shear modulus value, the polymerization time for each sample was calculated. The polymerization times for PBS, TB, EB, and PEG groups were 97.0±14.9, 94.6±8.3, 106.2±10.7, 93.8±17.0 minutes (n=3, p=0.654) (FIG. 8B).

Turning to `Cc1cc(-c2ccc(/N=N/c3c(S(=O)(=O)O)cc4cc(S(=O)(=O)O)cc(N)c4c3O)c(C)c2)ccc1/N=N/c1c(S(=O)(=O)O)cc2cc(S(=O)(=O)O)cc(N)c2c1O` [TB, Trypan Blue], the gelation time was determined as 42.4 ± 19.4 s, the polymerization time stood at 94.6 ± 8.3 min and the “final shear modulus (g′)” value is 2197±221 Pa.
In the same order, the values of `Cc1cc(-c2ccc(/N=N/c3ccc4c(S(=O)(=O)O)cc(S(=O)(=O)O)c(N)c4c3O)c(C)c2)ccc1/N=N/c1ccc2c(S(=O)(=O)O)cc(S(=O)(=O)O)c(N)c2c1O` [EB, Evans Blue] are 89.6 ± 17.9 s, 106.2 ± 10.7 min and 2077±441 Pa.
